# Earlier results in PMC7766159, “Novel Psychoactive Phenethylamines: Impact on Genetic Material” (International Journal of Molecular Sciences, 2020).
# Test system: primary rat hepatocyte
# Design: method as in PMID 31468101
# Settings: after 24 h; cited from earlier work
compound,measurement,value
"CNC(C)C(=O)c1cccc(C)c1 (stereo not shown) [Metaphedrone, 3-methylmethcathinone]",concentration mediating oxidative stress,10 µM
